Measurements published in US20260317357A1, “HETEROCYCLIC COMPOUNDS AS STING AGONISTS” (LigaChem Biosciences Inc., priority 2022, published 2026).

Tests used:
hSTING-HAQ = biological target: T1, hSTING-HAQ (Homo sapiens, UniProt Q86WV6, G230A/H232R/R293Q/R71H); assay: STING agonist activity, THP1 Dual reporter cells expressing endogenous STING variant HAQ; format: cell-based; conditions: IRF luciferase, 24 hours
T1 construct: expressing the endogenous STING variant HAQ; host or cells: THP1 Dual
Experimental: (§1) In order to evaluate the activity of the STING agonist, reporter cells from Invivogen were used. The cell lines used in the experiment were THP1 Dual™ (InvivoGen #thpd-nfis) expressing the endogenous STING variant HAQ and THP1 Dual™ KI-hSTING-R232 (InvivoGen #thpd-r232/h232) into which the STING R232 or H232 variant gene was injected after removing the STING HAQ gene. The cell lines have a luciferase reporter gene inserted below the IFN regulatory factor (IRF) promoter, and thus the activity of the IFN regulatory factor (IRF) mechanism can be evaluated through luciferase expression.
(§2) The reporter cells were plated at 9.0×10^4 cells/100 μL per well in a 96-well plate using RPMI 1640 medium (Gibco, #22400097) supplemented with 10% heat-inactivated FBS and 1×Antibiotic-Antimycotic (Gibco, #15240062), 10 μg/mL blasticidin (Gibco, #A1113902), and 100 μg/mL Zeocin (Gibco, #R25005). The plated cells were cultured at 37° C., 5% CO2 for 24 hours, and then treated with 100 μL of the serially diluted compound in each well, and then cultured at 37° C., 5% CO2 for 24 hours. After culturing, 20 μL of the cell culture medium was transferred to a 96 well white plate, and QUANTI-Luc™ (InvivoGen #rep-qlcl) was added at 50 µL/well. Using a microplate reader (Perkin Elmer), the value of the luminescence signal increased in the experimental group treated with the drug compared to the control group not treated with the drug was calculated. EC50 values were derived according to the concentration of the compound using GraphPad Prism.

[1] = In vitro cell cytotoxicity in CD34+ HSC (CellTiter-Glo); format: cell-based; conditions: cd34+ hscs
Experimental: The CD34^+ hematopoietic stem cells (HSCs) were purchased from […]™ (#70002.3). The cells (2×10^4 cells per well) were cultured in StemSpan™ SFEM II medium supplemented with StemSpan™ CD34+ Expansion Supplement (#02691) in a 6-well plate at 37° C. for 7 days. On day 3 or 4, an equal volume of fresh complete medium was added into the cell culture. On day 7, the cells (4×10^4 cells per well) were seeded in a 96-well white plate and rested for 24 hours in the same condition.
After 72 hours, the cell viability was measured using CellTiter-Glo Luminescent Cell Viability Assay (Promega, #G7573) according to the manufacture's instruction. The signal was detected using an EnVision Xcite multilabel reader and data were analyzed using GraphPad Prism 8 software.

hSTING-R232 = biological target: T2, hSTING-R232 (Homo sapiens, UniProt Q86WV6, H232R); assay: STING agonist activity, THP1 Dual KI-hSTING-R232 IRF luciferase reporter cells; format: cell-based; conditions: 24 hours
T2 construct: host or cells: THP1 Dual KI-hSTING-R232 (STING HAQ gene removed, R232 variant gene introduced)
Experimental: as §1, §2

[2] = In vitro cell cytotoxicity in PBMCs (CellTiter-Glo); format: cell-based
Experimental: PBMCs were also purchased from […]™ (#700025.2). The cells (8.0×10^4 cells per well) were seeded in a flat-bottomed 96-well plate in RPMI 1640 medium (Gibco, #22400097) with 10% heat-inactivated FBS and 1×Antibiotic-Antimycotic (Gibco, #15240062) and rested for 24 hours at 37° C. […] After 72 hours, the cell viability was measured using CellTiter-Glo Luminescent Cell Viability Assay (Promega, #G7573) according to the manufacture's instruction. The signal was detected using an EnVision Xcite multilabel reader and data were analyzed using GraphPad Prism 8 software.
To verify the effect of the STING agonist compounds in normal cell cytotoxicity, the PBMCs were treated with the STING agonist compounds for 3 days and measured the percentage of cell death.

hSTING-H232 = biological target: T3, hSTING-H232 (Homo sapiens, UniProt Q86WV6); assay: STING agonist activity, THP1 Dual reporter cells with STING H232 variant; format: cell-based; conditions: IRF luciferase, 24 hours
T3 construct: host or cells: THP1 Dual KI-hSTING (STING HAQ gene removed, H232 variant gene introduced)
Experimental: as §1, §2

human STING = biological target: T4, human STING (Homo sapiens, UniProt Q86WV6); assay: Direct binding potency, HUMAN STING WT BINDING KIT (Cisbio); conditions: in vitro
T4 construct: purchased Cisbio #64BDSTGPEG
Excerpt: Additionally, or analysis of direct binding potency of STING agonist compounds described herein to human STING, HUMAN STING WT BINDING KIT (Cisbio, #64BDSTGPEG) was used according to the manufacturer's instruction.

[3] = Pharmacokinetics in Balb/C mouse after single IV dose; format: in vivo; conditions: 1.5 mg/kg; for AUC(0-inf) / AUC(0-t) / C0 / Cmax / AUC∞, norm / Cmax, norm: n = 3, plasma; for AUC∞, norm / Cmax, norm: dose-normalized; for clearance / half-life / Vd: plasma; for clearance / half-life: n = 3; for Vd: n = 3, read-out: VSS
Experimental: For in vivo evaluation of STING agonist compounds described herein in naïve Balb/C mouse, single doses of STING agonist compounds were given at 1.5 mg/kg intravenously into female BALB/c mice (Orientbio, South Korea) at 6-8 weeks of age. Pharmacokinetics were studied following injection of the STING agonist compounds into Balb/C mice. Plasma samples were taken at various time points and stored frozen for analysis. The plasma concentrations of the STING agonist compounds at the indicated time points were measured using a LC-MS/MS analysis method.
Briefly, 250 μL of acetonitrile (ACN) solution was added in both 50 µL of sample and 50 µL of plasma containing 10 nM Dextromethorphan (internal standard), and the solutions were mixed vigorously using a vortex mixer for 5 minutes. The samples were then spun down at 14,000 rpm, 4° C. for 5 minutes. 100 μL of supernatants were combined with 100 μL of mobile phase A (0.1% formic acid in water with 5% ACN) and mixed thoroughly. The samples were measured for the STING agonist compounds using a LC-MS/MS (Nexera LC40 (SHIMADZU) and QTRAP4500 (SCIEX)).

T2 sequence (Q86WV6 whole entry H232R): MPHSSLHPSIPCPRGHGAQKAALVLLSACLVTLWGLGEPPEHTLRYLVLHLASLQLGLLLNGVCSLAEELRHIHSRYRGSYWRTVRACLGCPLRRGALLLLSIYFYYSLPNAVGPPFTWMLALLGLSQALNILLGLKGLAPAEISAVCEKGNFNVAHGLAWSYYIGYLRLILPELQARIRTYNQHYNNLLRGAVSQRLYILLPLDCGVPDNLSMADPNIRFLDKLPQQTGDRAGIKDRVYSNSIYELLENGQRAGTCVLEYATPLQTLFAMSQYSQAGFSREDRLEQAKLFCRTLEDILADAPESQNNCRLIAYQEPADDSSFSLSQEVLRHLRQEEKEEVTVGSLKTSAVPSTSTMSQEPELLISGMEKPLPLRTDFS
T1 sequence (Q86WV6 whole entry R71H/G230A/H232R/R293Q): as the sequence (Q86WV6 whole entry H232R) above, with R71H, G230A, R293Q counted along it
T3 sequence (Q86WV6 whole entry): as the sequence (Q86WV6 whole entry H232R) above, with R232H counted along it
T4 sequence (Q86WV6 whole entry): as the sequence (Q86WV6 whole entry H232R) above, with R232H counted along it

Row | EC50 (hSTING-HAQ) | EC50 (hSTING-R232) | EC50 (hSTING-H232) | EC50 (human STING) | AUC(0-inf) [3] | AUC(0-t) [3] | C0 [3] | Cmax [3] | AUC∞, norm [3] | Cmax, norm [3] | clearance [3] | half-life [3] | Vd [3] | SMILES | CC50 at 72 h [1] | CC50 at 72 h [2]
1 | 15.5 nM | 3.37 nM | 9.5 nM |  |  |  |  |  |  |  |  |  |  | CCn1nc(C)cc1C(=O)Nc1nc2cc(C(N)=O)cc(OC)c2n1C/C=C/Cn1c(NC(=O)c2cc(C)nn2CC)nc2cc(C(N)=O)cc(OC/C=C/CN3CCNCC3=O)c21 [Compound 28] | 24.9 nM | 12.7 nM
2 | 25.5 nM | 1.7 nM | 7 nM | 0.43 nM | 440 ± 440 ng·h/mL | 430 ± 50 ng·h/mL | 1300 ± 430 ng/mL | 960 ± 170 ng/mL | 0.29 ± 0.03 kg·h/L | 0.64 ± 0.11 kg/L | 57.5 mL/min/kg | 28.2 ± 4.8 min | 1.58 ± 0.13 L/kg | CCn1nc(C)cc1C(=O)Nc1nc2cc(C(N)=O)cc(OC/C=C/Cn3cc(N)cn3)c2n1C/C=C/Cn1c(NC(=O)c2cc(C)nn2CC)nc2cc(C(N)=O)cc(OCCCC(=O)O)c21 [Compound 65] | 3.9 nM | 18.5 nM
3 | 6.3 nM | 0.5 nM | 5.5 nM | 0.22 nM | 5160 ± 120 ng·h/mL | 5110 ± 120 ng·h/mL | 21100 ± 2210 ng/mL | 14100 ± 590 ng/mL | 3.44 ± 0.08 kg·h/L | 9.42 ± 0.39 kg/L | 4.83 mL/min/kg | 72 ± 4.8 min | 0.15 L/kg | CCn1nc(C)cc1C(=O)Nc1nc2cc(C(N)=O)cc(OC)c2n1C/C=C/Cn1c(NC(=O)c2cc(C)nn2CC)nc2cc(C(N)=O)cc(OC/C=C/Cn3cc(N)cn3)c21 [Compound 55] | 7.9 nM | 4 nM
